Results on four molecules are retold here after patent US12383542B2, “Methods of treating ovarian cancer” (TESARO, INC., priority 2016, dated 2025).

Several values for one entry are separate records, joined by “and”; a condition that tells them apart may be missing. Equal entries are not always repeated. Structures can show the parent of a compound that is named as a salt. Where two headings read alike, the source gives them in different places.

The test system of data set [1] is ovarian cancer. To be noted: cited from earlier work.
Data set [2] concerns ovarian cancer. To be noted: cited from earlier work. The source holds these as a separate data set.
Data set [3] has as its system platinum-sensitive epithelial ovarian cancer. Conditions: cited from earlier work.
The text on data set [4]:
Patients continued to receive their assigned treatment until disease progression, unacceptable toxicity, death, withdrawal of consent, and/or lost to follow-up. Dose interruption and/or reduction were available at any time for any grade toxicity considered intolerable by the patient.
Dose interruption and/or reduction could be implemented at any time for any grade toxicity considered intolerable by the patient. Treatment was required to be interrupted for any non-hematologic AE that was Grade 3 or 4, per NCI CTCAE v.4.02 if the Investigator considered the event to be related to administration of study drug. If toxicity was appropriately resolved to baseline or Grade 1 or less within 28 days, the patient was allowed to restart treatment with study drug, but with a dose level reduction according to Table 4, if prophylaxis was not considered feasible.

For data set [5] the following is noted: in vivo. As to the method: Patients with ovarian cancer regardless of platinum sensitivity and burden of disease were randomized to either Group A or Group B with 6 patients assigned to each group. […] In Group B, patients fasted for at least 10 hours before consuming a high fat meal.
Data set [6] deals with cancer cell lines that have been silenced for BRCA-1 or BRCA-2, or carry BRCA-1 or BRCA-2 mutations.
Data set [7] concerns Ewing's sarcoma, ALL, NSCLC, SCLC cell lines and tumor cell lines carrying homozygous inactivation of the ATM gene.
In data set [8] the test system is normal human cells.
Data set [9] concerns MDA-MB-436, CAPAN-1, GRANTA-519, OVCAR3, HT29, DLD-1, patient derived Ewing's sarcoma and TNBC xenograft models. To be noted: xenograft models in mice.
The subject of data set [10] is PARP activity. To be noted: tumor homogenates.
In data set [11] the test system is PARP activity. To be noted: mice dosed with niraparib.
In data set [12] the test system is platinum-sensitive recurrent ovarian cancer. Conditions: for patients with PFS events at the time of unblinding: patients entering with PR; for Time to second subsequent treatment, HR: <40% of events.
The subject of data set [13] is PARP activity. The data set is described as follows: cells.
Data set [14] relates to advanced BRCA-mutant ovarian cancer. Conditions: cited from earlier work.
The subject of data set [15] is ovarian cancer. Conditions: relatively small sample size; cited from earlier work.
[16] abbreviates: all patients treated with niraparib.
[17] abbreviates: HRDneg group, listed as Niraparib.

As to `O=C(c1cc(Cc2n[nH]c(=O)c3ccccc23)ccc1F)N1CCN(C(=O)C2CC2)CC1` [olaparib, 4-[(3-{[4-(cyclopropylcarbonyl)piperazin-1-yl]carbonyl}-4-fluorophenyl)methyl]phthalazin-1(2H)-one], the “Median PFS” value in [1] (patients with BRCA mutations) is on record as 11.2 months. The “planned analysis of the subset of patients with BRCA mutations” value in [1] (phase II maintenance study) is reported as “a clear advantage”. In addition, the responses in [2] (17 patients with BRCA1 or BRCA2 mutations) was 7; in data set [2] (46 patients without these mutations), 11. For the same molecule, the “serious adverse events versus control group” value in data set [3] (human, in vivo) is reported as “more common”. The “change in overall survival” value in data set [3] (women with germline BRCA mutations, versus placebo or no treatment) is “no significant change”.
In general, IC50 refers to the concentration at which inhibition is half-maximal. On to `NC(=O)c1cccc2cn(-c3ccc([C@@H]4CCCNC4)cc3)nc12` [niraparib, (3S)-3-[4-{7-(aminocarbonyl)-2H-indazol-2-yl}phenyl]piperidine], for which the “rate of MDS/AML” value in [4] (ITT population) was 1.3%. The “treatment-emergent grade 3/4 anemia” value in data set [4] (setting [16]) was determined as 24.8%. For the same molecule, in [4] (setting [16]), the “treatment-emergent grade 3/4 neutropenia” value amounted to 11.2%. Besides, the “treatment-emergent grade 3/4 thrombocytopenia” value in [4] (setting [16]) was 28.3%. Further, the “grade 5 events” value in [4] (human, in vivo, 300 mg QD) is reported as “No grade 5 events occurred”. Besides, the “TEAEs leading to dose reduction” value in data set [4] (in vivo) amounted to 67%. Moreover, the “TEAEs leading to treatment discontinuation” value in data set [4] (in vivo) stood at 15%. The “TEAEs leading to treatment interruption” value in data set [4] (in vivo) amounted to 69%. Further, in data set [4] (in vivo), the “grade 3 or 4 bleeding event” value is listed as “No patient”. In addition, in data set [4] (in vivo), the “incidence of CTCAE Grade ≥3 TEAEs” value is 74%. Moreover, in data set [4] (in vivo), the “incidence of SAEs” value worked out at 30%. Also, in data set [4] (in vivo), the “incidence of treatment-related TEAEs” value is recorded as 98%. The “patients remaining on niraparib for the duration of the study” value in [4] (in vivo) is listed as around 85%. The “patients with at least 1 TEAE” value in [4] (in vivo) is listed as “all patients”. The “mean platelet count over time” value in [4] (overall niraparib treated population, after decrease by day 15) is reported as “generally returned to near baseline by Cycle 4”. Besides, the “incidence of MDS/AML” value in data set [4] (patients who received niraparib (5 of 367)) is 1.4% and 1%. In data set [5], the “bioavailability in fed versus fasted state” value is given as “substantially similar”. Besides, in [6] (BRCA-defective cells), the “consequence on cell cycle” value is given as “cell cycle arrest in G2/M followed by apoptosis”. In addition, the anti-proliferative activity result in [6] (compared to wild type counterparts) is reported as “selective anti-proliferative activity”. Moreover, the cytotoxicity result in data set [7] is reported as “selectively cytotoxic”. Further, in data set [8], the “activity on normal human cells” value is listed as “weak activity”. The antitumor activity result in data set [9] is “strong antitumor activity”. In [10], the “target engagement (PARP activity)” value is listed as “Target engagement has also been demonstrated”. The “PARP activity in PBMCs” value in data set [11] was “Inhibition of PARP activity”. Also, the “% of Patients without Progression or Death at 6 Months” value in data set [12] (HRDneg group) was 54%; in [12] (HRDpos group), 69%; in data set [12] (gBRCAmut cohort) it was 80%; in [12] (non-gBRCAmut cohort), 61%. Moreover, the “% of Patients without Progression or Death at 12 Months” value was 27% in [12] (HRDneg group); 27% in data set [12] (setting [17]); 51% in data set [12] (HRDpos group); 62% in data set [12] (gBRCAmut cohort); 41% in data set [12] (non-gBRCAmut cohort). In addition, the “% of Patients without Progression or Death at 18 Months” value in data set [12] (HRDneg group) is listed as 19%; in [12] (setting [17]) it was 19%; in [12] (HRDpos group) it was 37%; in [12] (gBRCAmut cohort), 50%; in [12] (non-gBRCAmut cohort) it was 30%. Besides, the chemotherapy-free interval result in [12] (both cohorts, versus placebo) is listed as “significantly improved”. For the same molecule, in [12] (both cohorts, versus placebo), the “time to first subsequent treatment” value was “significantly improved”. Moreover, the “Overall Survival, HR” value in data set [12] (combined cohorts, data immature, 80% of patients censored) is on record as “HR 0.73 (95% CI: 0.480, 1.125)”. Besides, the “Median PFS” value in [12] (combined study population (gBRCAmut and non-gBRCAmut), exploratory pooled analysis) was 11.3 months; in data set [12] (gBRCAmut cohort), 21.0 Months; in [12] (gBRCAmut cohort, listed as Niraparib), 21.0 Months and 21.0 (12.9, NE) Months; in [12] (non-gBRCAmut, HRD negative) it was 6.9 Months; in [12] (non-gBRCAmut, HRD negative, listed as Niraparib) it was 6.9 Months and 6.9 (5.6, 9.6) Months; in data set [12] (non-gBRCAmut, HRD-positive) it was 12.9 Months. For the same molecule, the “Median PFS” value in data set [12] (non-gBRCAmut, HRD-positive, listed as Niraparib) was 12.9 Months and 12.9 (8.1, 15.9) Months; in data set [12] (non-gBRCAmut, HRDpos/BRCAwt), 9.3 Months; in [12] (non-gBRCAmut, HRDpos/somatic BRCAmut) it was 20.9 Months; in data set [12] (overall non-gBRCAmut cohort), 9.3 Months; in data set [12] (overall non-gBRCAmut cohort, listed as Niraparib), 9.3 Months and 9.3 (7.2, 11.2) Months. In addition, the “PFS by niraparib dose of longest duration (100, 200, 300 mg)” value in [12] (gBRCAmut and non-gBRCAmut cohorts) was “consistent with the overall population”. The “progression-free survival 2” value in [12] (gBRCAmut cohort) was 25.8 months. For the same molecule, the “patients with PFS events at the time of unblinding” value in [12] (gBRCAmut) amounted to 45%; in data set [12] (non-gBRCAmut), 56%. For the same molecule, the “Time to second subsequent treatment, HR” value in [12] (gBRCAmut, data immature) is “HR 0.48 (95% CI: 0.272, 0.851)”; in data set [12] (non-gBRCAmut, data immature), “HR 0.74 (95% CI: 0.519, 1.066)”. In [12] (in vivo), the “impact of treatment on OS” value is “no detrimental impact”. In [12] (overall non-gBRCAmut cohort), the “median PFS 2” value is 18.64 months. In addition, the “PFS2-PFS1 (efficacy of next-line treatment)” value in data set [12] (pooled cohorts, versus placebo) is on record as “similar”. Moreover, the IC50 in [13] (read-out: IC50 of PARP activity in cells) is around 0.004 µM. For the same molecule, in [13] (read-out: inhibitory concentration at 90% of control (IC90)), the IC90 was around 0.05 µM.
As to `CNCc1ccc(-c2[nH]c3cc(F)cc4c3c2CCNC4=O)cc1` [rucaparib, 8-fluoro-2-{4-[(methylamino)methyl]phenyl}-1,3,4,5-tetrahydro-6H-azepino[5,4,3-cd]indol-6-one ((1S,4R)-7,7-dimethyl-2-oxobicyclo[2.2.1]hept-1-yl)methanesulfonic acid salt], the “Response assessment by independent radiology review” value in data set [14] (600 mg orally twice daily, 106 patients) is 42%. For the same molecule, the “median DOR” value in data set [14] (independent radiology review) was 6.7 months. Besides, the “Investigator-assessed ORR” value in data set [14] (platinum-refractory patients) is reported as 0%; in data set [14] (platinum-resistant patients), 25%; in data set [14] (platinum-sensitive patients) it was 66%.
With `C[C@]1(c2nc3c(C(N)=O)cccc3[nH]2)CCCN1` [veliparib, 2-[(R)-2-methylpyrrolidin-2-yl]-1H-benzimidazole-4-carboxamide], the “effect on the progression of ovarian cancer” value in data set [15] was “unable to show any effect”.
